Reference: US20240285594A1, “COMPOSITIONS AND METHODS FOR TREATING PAIN IN ANIMALS” (North Carolina State University, priority 2023, published 2024)
“And” between values parts separate entries of the source, which are not always exact repeats. Equal values may be shown once. “Also recorded” adds a separate entry of the source. Read-outs that look alike come from different tables or passages of the source.

How the values were obtained:
[1] = Pilot pharmacokinetic study of intranasal flunixin, three catheter sites; format: in vivo; details: female, Yorkshire cross, plasma, inhaled or intranasal, 3.0 mg/kg IN, one grower pig; for AUC / Cmax: pig, 3 mg/kg; for AUC: read-out: area under the curve (AUC) (converted); for Cmax: read-out: peak concentration (Cmax)
Source text: A pilot study in one animal was initially performed to compare jugular venous drug concentrations to those of other sites (femoral artery and auricular artery), as there was concern that drainage of the nasal sinus would produce higher concentrations of flunixin in the blood collected from the jugular vein.
The pilot study involved one female Yorkshire cross grower pig sourced from a production farm weighing 25.3 kg. The pig was sedated with IM Telazol®, ketamine, and xylazine (TKX). The Telazol® was reconstituted with ketamine (250 mg; 2.5 mL) and xylazine (250 mg; 2.5 mL; Dechra Veterinary Products, Overland Park, KS, USA) and administered IM at a dose of 0.03 mL/kg (1.5 mg/kg) for each medication before being intubated and maintained on isoflurane anesthesia. A femoral arterial catheter, jugular venous catheter, and auricular arterial catheter were placed using sterile technique. […] A higher dose than the label dose was chosen to ensure that the drug would be detectable since this study's purpose was to determine an appropriate catheter site. Using an intranasal mucosal atomization device (MAD) (Teleflex, Morrisville, NC, USA) with 1 mL luer lock syringe, each nostril was infused with 0.75 mL (37.5 mg) of flunixin to administer a total of 1.5 mL (75 mg). Plasma samples were collected from each catheter site at pre-treatment (blank), 0.08, 0.25, 0.5, 0.85, 1, 1.5, 2, 2.5, and 3 hours post-treatment and analyzed using ultra performance liquid chromatography and tandem mass spectrometry (UPLC-MS/MS) to determine flunixin concentrations. A non-compartmental pharmacokinetic analysis was then performed.

[2] = Observations and limited gross necropsy of the nasal cavity after IN or IM flunixin; format: in vivo, grower pigs
Protocol: Six female Yorkshire cross grower pigs approximately 8 weeks of age with no history of flunixin administration in a 30-day period were sourced from a production farm and enrolled in the study. The pigs were determined to be healthy by veterinary physical examination and pigs initially weighed between 18.0-22.0 kg. The pigs were individually housed in climate-controlled rooms with a 12:12 light dark cycle at the North Carolina State University College of Veterinary Medicine to prevent cross contamination between pigs and damage to jugular catheters. The pens had non-slip flooring, allowed the pigs to move freely, provided enrichment, and were cleaned at least twice daily. The pigs had ad libitum access to water via a nipple drinker and were fed 0.5 quarts of Nature's Match twice daily. The pigs acclimated for 1-2 days before they were anesthetized for jugular catheter placement as described in the pilot study above and were provided approximately 24 hours to recover from anesthesia before the study began. From the time of arrival until the end of the study, the pigs were monitored at least twice daily for general appearance, attitude, appetite, and wellbeing.

prostaglandin E2 (PGE2) = assay: Serum PGE2 after castration of piglets (Example 3); format: in vivo
Protocol: Pairwise comparisons of treatments at −24 h: P≥0.77. […] Pairwise comparisons of treatments at 24 h post-castration: P≥0.11.
The objective of this study was to evaluate the effects of intranasal flunixin and intra-inguinal lidocaine application on the castration associated inflammatory response in piglets, as described in Example 1.

[3] = Plasma and interstitial fluid concentrations after intravenous or intranasal flunixin meglumine in cattle; format: in vivo
Protocol: FIG. 10: Plasma concentration versus time curve for individual cattle (n=4) following a single intravenous dose of flunixin meglumine at 2.2 mg/kg. Samples were simultaneously collected from the opposite jugular vein (via pre-placed catheter) and a pre-placed portal vein catheter. Some variability is observed between sampling sites (jugular vs. portal vein) but overall concentrations and trend are similar over time.
FIG. 11: Plasma concentration versus time curve for individual cattle (n=4) following a single intranasal dose of flunixin meglumine at 2.2 mg/kg. Samples were simultaneously collected from a jugular vein catheter and a pre-placed portal vein catheter. Overall, plasma concentrations are lower following intranasal administration, and the jugular sampling site overestimates systemic concentrations especially following the first 1 hour after administration.
FIG. 12: Interstitial fluid concentration versus time curve for individual cattle (n=4) following a single intranasal (n=2) or intravenous (n=2) dose of flunixin meglumine at 2.2 mg/kg. Samples were collected using an in vivo ultrafiltration collection device and represent tissue unbound concentrations of flunixin. There is systemic absorption following both intravenous and intranasal routes of administration, with tissue concentrations of flunixin detected for at least 24 hours following a single dose.

[4] = female, Yorkshire cross, pig, in vivo, 2.2 mg/kg
Protocol: (§1) Six female Yorkshire cross grower pigs approximately 8 weeks of age with no history of flunixin administration in a 30-day period were sourced from a production farm and enrolled in the study. The pigs were determined to be healthy by veterinary physical examination and pigs initially weighed between 18.0-22.0 kg. The pigs were individually housed in climate-controlled rooms with a 12:12 light dark cycle at the North Carolina State University College of Veterinary Medicine to prevent cross contamination between pigs and damage to jugular catheters. The pens had non-slip flooring, allowed the pigs to move freely, provided enrichment, and were cleaned at least twice daily. The pigs had ad libitum access to water via a nipple drinker and were fed 0.5 quarts of Nature's Match twice daily. […] From the time of arrival until the end of the study, the pigs were monitored at least twice daily for general appearance, attitude, appetite, and wellbeing.
(§2) To facilitate jugular catheter placement, the pigs were sedated with Telazol®, reconstituted with ketamine and xylazine as previously described, intubated, and maintained on gas isoflurane anesthesia. A 22-gauge, 10 cm intravenous catheter (MILA, International, Inc., Florence, KY, USA) was placed into the jugular vein using sterile technique. It was sutured in place with 3-0 nylon and covered in Ioban™ (3M, St. Paul, MN, USA) to prevent damage. The pigs wore custom jackets throughout the study to protect the catheters and an extension set was attached to allow for easy catheter access and restraint-free blood collection.
(§3) All pigs were randomized to determine the first administration route. Group 1 (n=3 pigs) and Group 2 (n=3 pigs) were used in a cross-over design and received 2.2 mg/kg flunixin (Banamine®-S, Merck Animal Health, Madison, NJ, USA) by either the IM or IN route. Following a 5-day washout period, the pigs were administered 2.2 mg/kg flunixin via the opposite route. IN administration was completed using a MAD600 MADgic laryngo-tracheal mucosal atomization device (Teleflex Medical, Morrisville, NC, USA). The luer lock syringe was attached to this device and drug was placed into the nostril. Before administration, 0.22 mL of the drug was added to the device to account for dead space volume. After the IN dose, pigs were encouraged to keep their heads raised for approximately 10 seconds to prevent leakage of the drug out of the nasal cavity. Intramuscular administration was performed in the omotransversarius muscle using a 20G needle.
(§4) Blood samples were collected at 0 (pre-treatment), 0.16, 0.33, 0.5, 0.75, 1, 1.5, 2, 3, 4, 6, 8, 12, 18, 24, 36, 48, and 60 hours post treatment. To avoid heparin contamination in samples, at least 1 mL of blood was collected as a purge sample before 1-2 mL of blood was collected and placed into lithium heparin tubes (BD Vacutainer, Franklin Lakes, NJ, USA). The purge blood was injected back into the catheter before the catheter was flushed with 3-4 mL of heparinized saline to prevent coagulation. The blood tubes were placed on ice for no more than 1 hour before they were processed. Plasma was separated by centrifugation at 3500×g for 10 minutes at 4° C., equally split between two cryovials, mixed, and stored at −80° C. until analysis.
(§5) To prepare samples, 100 μL of plasma was pipetted into a clean borosilicate glass tube (disposable culture tubes, CWR). To pretreat the plasma, 500 μL of 4% phosphoric acid prepared in water was added to each tube. Solid phase extraction was performed on an oasis prime HLB 96 well μElution plate (Waters Corporation, Milford, MA, USA). The plate was prepared by conditioning the plate with 500 μL of methanol followed by 500 μL of ultrapure water.

[5] = cited from earlier work
[6] = cited from earlier work; for mitigation of pain associated with castration (and tail docking): earlier published studies in pigs, route as in the sentence
[7] = IM flunixin in pigs; cited from earlier work
[8] = IM flunixin 2.2 mg/kg compared to ketoprofen 3 mg/kg and meloxicam 0.4 mg/kg; swine; cited from earlier work
in vivo = details: female, Yorkshire cross, pig, plasma, 2.2 mg/kg
Protocol: as §1, §2, §3, §4, §5

[9] = Cross-over plasma pharmacokinetics of intranasal versus intramuscular flunixin;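 also: grower pigs about 8 weeks old weighing 18.0-22.0 kg, randomized cross-over of both routes separated by a 5-day washout, blood taken via jugular vein catheter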
Protocol: as §1, §2, §3, §4, §5

[10] = IV administration 2.2 mg/kg, piglets, Kittrell et al. (2020)
[11] = PO administration 3.3 mg/kg, piglets, Kittrell et al. (2020)
[12] = TD administration 3.3 mg/kg, piglets, Kittrell et al. (2020)
[13] = intramuscular 2.2 mg/kg, six grower pigs, plasma, median
[14] = intranasal 2.2 mg/kg, six grower pigs, plasma, median

## Cc1c(Nc2ncccc2C(=O)O)cccc1C(F)(F)F [flunixin meglumine]
[1]; auricular artery
  AUC: 12.8 µg·h/mL
  Cmax: 6 µg/mL
[1]; femoral artery
  AUC: 12.3 µg·h/mL
  Cmax: 5.17 µg/mL
[1]; jugular vein
  AUC: 12.8 µg·h/mL
  Cmax: 6.82 µg/mL
[1]; all catheter sites, read-out: time to peak concentration (Tmax)
  Tmax: 15 min
[2]; following IN or IM administration, 2.2 mg/kg
  adverse effects on the pigs: No major adverse effects
[2]; following euthanasia, after IN administration
  limited gross necropsy of the nasal cavity: no negative effects
Prostaglandin E2 (PGE2); 1 h post-castration, castrated and non-castrated piglets, flunixin 2.2 mg/kg IN vs piglets without the drug
  serum PGE2 concentrations: lower serum PGE2 concentrations; also recorded: effective
Prostaglandin E2 (PGE2); 24 h post castration, vs other treatments
  serum PGE2 concentrations: no observed differences; also recorded: not effective
[3]; cattle (n=4), single intranasal dose 2.2 mg/kg, compared with intravenous
  plasma concentrations: lower
[3]; cattle, single intranasal or intravenous dose 2.2 mg/kg
  time tissue (interstitial fluid, unbound) concentrations were detected: at least 24 hours
[4]
  time flunixin was detectable in plasma post-administration: up to 60 hours
[5]; [10]
  half-life: 7.06 h
  maximum observed drug concentration: 12.03 µg/mL
[5]; [11]
  Cmax: 4.99 µg/mL
  Tmax: 55.8 min
  half-life: 11.38 h
[5]; [12]
  Cmax: 0.04 µg/mL
  Tmax: 1350 min
  half-life: 38.89 h
[5]; transdermal formulation, pigs
  bioavailability: low bioavailability
[5]; transdermal formulation, swine, Kittrell et al. (2020)
  blood concentrations: low blood concentrations
[6]; FM topically 24 h prior to castration vs saline-treated piglets, not significant
  numerical decrease of cortisol concentrations: more than 30%
[6]
  mitigation of pain associated with castration (and tail docking): effective
[6]; listed as flunixin
  mitigation of pain associated with castration (and tail docking): more effective; also recorded: superior
[6]; immediately post castration, transdermal flunixin treated piglets, castrated piglets 4.9, video observation
  total pain scores: 3.1
[6]; intramuscular FM, 2 h post-castration, vs castrated non-treated control, Nixon 2021
  cortisol concentrations: decreased cortisol concentrations
[6]; transdermal FM 24 h before castration, control pigs 54%
  rescue analgesia intervention: 29%
[7]
  label withdrawal time: 12 days
[8]
  bioavailability: higher bioavailability
  terminal half-life: longer terminal half-life
In vivo; im
  AUC(0-inf): 6.9 µg·h/mL
  AUC(0-t): 6.9 µg·h/mL
  CL/F: 0.3 L/h/kg
  Cmax: 4 µg/mL
  Tmax: 12 min
  Vd/F: 3.2 L/kg
In vivo; inhaled or intranasal
  AUC(0-t): 4.8 µg·h/mL
  CL/F: 0.5 L/h/kg
  Cmax: 2.7 µg/mL
  Tmax: 12 min
  Vd/F: 5.4 L/kg
In vivo; other: intranasal
  bioavailability: 88.5%
[9]; 2.2 mg/kg IM, individual grower pig (Pig # 1-6, one line per pig), unit not given
  AUCinf of IM administration: 7.63 and 6.25 and 7.82 and 8.54 and 5.29 and 4.99
[9]; 2.2 mg/kg IN, individual grower pig (Pig # 1-6, one line per pig), unit not given
  AUCinf of IN administration: 2.98 and 8.90 and 7.07 and 4.98 and 4.74
[9]; [13]
  AUC Extrap: 0.3%
  λz: 0.1 h⁻¹
[9]; [14]
  AUC Extrap: 0.5%
  AUCinf: 4.9 µg·h/mL
  HLλz: 7.4 h
  λz: 0.09 h⁻¹
